# Test results reported in ChEMBL document CHEMBL3507680, “University of Dundee, Gates Library screen for HepG2 cell viability”.
# Assay: Human HepG2 cell viability assay in 384 well format
# Type: toxicity, cell-based
# Parameters: dose 125 nL, time 70.5 hour; concentration not given beside the values
# Conditions: HepG2 cells, read-out: Inhibition
row,SMILES,cytotoxicity at 70.5 h [%]
1,Cc1cc(C)n(CC2CCCCN2CCC(=O)Nc2cc(C)on2)n1 (configuration not stated),-10.3
2,Cc1cc(N(C)C)cc(C2CCN(S(=O)(=O)c3cccnc3)C2)n1 (configuration not stated),1.07
3,Nc1cc(CCCNC(=O)NC2CCCC2)nn1-c1ccccc1,-102
4,CCc1ccc2nc(-c3cnn(C)c3)cc(C(=O)N3CCCC3)c2c1,-5.34
5,Cn1cnc2c1C(COCC1CC1)CN(Cc1ccsc1)C2 (configuration not stated),5.05
6,Cc1cc(C)n(C2=NC(NCCC(C)C)c3c(sc4c3CCCC4)N2)n1 (configuration not stated),1.07
7,CC(C)Cn1cc(NC(=O)NCC2CCN(c3ccccc3)C2)cn1 (configuration not stated),-0.00229
8,Cc1cc(C)nc(CCNC(=O)[C@H]2CNC[C@@H](C(=O)N3CCCC3)C2)n1,9.67
9,CCOCC1CN(CCc2ccccc2)Cc2c1cnn2C (configuration not stated),10.7
10,CCN(C)C(=O)c1cccc(C(=O)N(C)Cc2cccc(O)c2)c1,25.8
11,Cc1ncc(CNC(=O)CCOc2ccccc2)c(C2CCCN2C)n1 (configuration not stated),-8.4
12,O=C(c1ccc(Cl)cn1)N1CCC(COCc2ccccc2)C1 (configuration not stated),15.8
13,Cc1c(C2SCC(=O)Nc3c2c(O)nn3C2CCCCC2)cnn1C (configuration not stated),-24.4
14,CC(C)CCC(=O)NCCc1ccn(-c2ccccc2)n1,-5.88
15,Cc1cc(C)n(CC2CCCN2Cc2c(C)noc2C)n1 (configuration not stated),34.3
16,CCN(CC)c1ccc(-c2nc(-c3cccc(OC)c3OC)no2)cn1,-7.4
17,Nc1cccnc1N1CCC(c2ccccc2)CC1,25
18,CC(=O)N(Cc1ncc(C)o1)C1CCN(Cc2sc(C)nc2C)C1 (configuration not stated),-3.28
19,CCc1[nH]ncc1C(=O)N1CCCN(Cc2cnn(C)c2)CC1,-10.9
20,Cc1csc(Nc2nccnc2C2CCCN2C(=O)C(C)C)n1 (configuration not stated),-18.2
21,CC(=O)Nc1ncc(S(=O)(=O)Nc2ccc(C)cc2)s1,-1.08
22,Cc1ccn(-c2cccc(C(=O)N3CCCC(n4ccnc4C)C3)c2)n1 (configuration not stated),-11.3
23,Cc1ccc(C)c(C(=O)CN2C(=O)c3ccccc3CS2(=O)=O)c1,-15

row,SMILES,cytotoxicity at 70.5 h [%]
1,NCC1Cc2cc(Oc3cc(F)c(CN4CCCC4)c(F)c3)ccc2O1 (configuration not stated),-11.4
2,CC(NC(=O)Nc1cccnc1N1CCCC1)c1ccn(C)c1 (configuration not stated),25
3,NC(=O)NC(=O)CCSCc1coc(-c2cccc(Cl)c2)n1,-17.3
4,CC(Nc1nccc(CCC(F)(F)F)n1)c1nc(-c2ccccn2)no1 (configuration not stated),-2.61
5,CC(NC(=O)c1ccc(C#N)cn1)C1(N2CCOCC2)CCCC1 (configuration not stated),-7.03
6,CCN(C1CCN(Cc2ncc(C(C)(C)C)o2)CC1)S(C)(=O)=O,-7.94
7,Cc1cc(CN2C[C@@H]3COC[C@]3(CNC(=O)c3ccco3)C2)no1,-7.96
8,Cc1cc(-c2ccncc2)ccc1OCC(N)=O,-5
9,CN(Cc1cccc(O)c1)C(=O)Nc1cccnc1N1CCCC1,16.2
10,O=c1oc(-c2ccc(F)cc2)nn1CC1CCCCO1 (configuration not stated),-3.87
11,CNc1nccnc1C1CN(C(=O)c2cc[nH]n2)CCO1 (configuration not stated),-4.96
12,O=C(CC1CCCC1)N1C[C@@H]2C[C@H]1CN2,-3.6
13,Cc1nc(CN(C)C2CCN(CCCOc3ccccc3C)C2)no1 (configuration not stated),0.379
14,O=C(c1ccncc1)N1CCC(Oc2cccc(C(F)(F)F)c2)CC1,-5.79
15,O=C(CCc1cc(Cl)no1)N1CCCCC1CCN1CCOCC1 (configuration not stated),-2.5
16,NC(C(=O)N1CCSc2ccccc2C1)c1ccccc1 (configuration not stated),2.56
17,CCSCCC(=O)NC1CCN(C(C)c2ccccc2)CC1 (configuration not stated),-10.7
18,Cc1noc(C2CCCN(C(=O)c3ccc(N(C)C)nc3)C2)n1 (configuration not stated),-8.13
19,Cc1csc([C@H]2C[C@H]3CN(Cc4cc(C)on4)CC[C@@H]3O2)n1,-7.64
20,CC(C)NC(=O)N1CCC2(CC1)COc1ccccc1S(=O)(=O)N(C)C2,0.573
21,COc1cccc(OCCNS(=O)(=O)Cc2ccccc2)c1,19.4
22,CN1C(=O)CO[C@H](c2ccc(NC(=O)Cc3cccs3)cc2)[C@H]1CO,-6.23
23,CC(C)(C)c1n[nH]cc1CN1CCc2nc3ccsc3c(=O)n2CC1,12.1

row,SMILES,cytotoxicity at 70.5 h [%]
1,CCC1c2ccccc2CCN1CCNS(C)(=O)=O (configuration not stated),-4.6
2,CC(C)CNC(=O)CC1(Cn2cnnn2)CCCCC1,-12.5
3,CN(C)[C@@H]1CCN(CC2CC2)[C@H]1Cc1cnn(C)c1,0.964
4,O=C1Nc2ccccc2NC12CCN(Cc1nnc(C3CC3)o1)CC2,-5.39
5,O=C(O)[C@]12CCCN(Cc3ccncc3)C[C@H]1CN(c1ncccn1)C2,2.52
6,c1nc(CNC2CCOCC2)c2n1CCCN(CC1CC1)C2,-3.82
7,O=C(NCc1ccoc1)Nc1cc(C(F)(F)F)c[nH]c1=O,1.11
8,COC(=O)c1cnc2c(c(C)nn2C)c1OC,-3.27
9,COc1ccc(-c2nc(CN3CC(n4nc(C)cc4C)C3)no2)cc1,-5.57
10,Cc1cc(CN2CC[C@H]3C[C@H](C(=O)Nc4cccnc4C)O[C@@H]3C2)no1,12.4
11,O=C1NCCN1C1CCN(CC(O)c2ccccc2F)CC1 (configuration not stated),-7.23
12,COc1cccc(CNCCc2cccc(C(N)=O)c2)c1,-8.65
13,CC(=O)N1CCN(C(=O)CN2CCN(c3cccc(C)c3)CC2)CC1,-6.8
14,CN(C)Cc1cnn(-c2ccccc2C(=O)N(C)Cc2ccccc2)c1,-5.67
15,COc1ccnc(N2CCC3(CC2)[C@H](O)C[C@@H]3OCCN(C)C)n1,2.31
16,Cc1nc(CN2CC[C@H]3[C@H]2CCN3c2nncs2)cs1,-3.7
17,CC(C)c1nccn1CCC(=O)N1CCCC1c1cccn1C (configuration not stated),-3.96
18,CN(Cc1ncnn1C)C(=O)CCn1ccc2ccccc21,-7.59
19,Cn1cc(C(=O)N2CC[C@@]3(O)CCN(C(=O)C4CCCC4)C[C@H]3C2)cn1,-10.4
20,O=C([C@H]1CN(Cc2ccc(F)cc2)C[C@H]2OCC[C@@H]12)N1CCCO1,-7.77
21,CC(C)c1noc(CCCC(=O)Nc2cccc(F)c2)n1,15.5
22,O=C1CCC(=O)N1c1nn(Cc2ccccc2)cc1Cl,20.6
23,COc1ccc(C(C)(C)C)cc1CN1CCn2c(CO)nnc2C1,6.88

row,SMILES,cytotoxicity at 70.5 h [%]
1,Cn1c(=O)[nH]c2cc(C(=O)OCCCn3ccccc3=O)ccc21,33.2
2,CCCc1nnc(NC2CCN(CCO)CC2)o1,-6.74
3,CC(=O)Nc1c(C)cnn1Cc1cc(F)ccc1F,-2.07
4,Cc1cccc(-n2nc(CC(C)C)nc2[C@H](C)O)c1,16.4
5,CSc1ccc(-c2noc(CN(CC(C)C)CC(C)C)n2)cc1,-12.7
6,COc1cccc(C(=O)N2CC[C@@H]3[C@H](CC2)N(C)CCS3(=O)=O)c1,-5.98
7,Cc1cnccc1NCCNC1CCSCC1,-17.3
8,Cc1cc2nc(CO[C@H]3CN(C(=O)C4CC4)C[C@H]3F)[nH]c2cc1C,27.1
9,O=C(N1CCC(O)(C(F)(F)F)C1)C1(c2ccc(Cl)cc2)CC1 (configuration not stated),18.9
10,CC(C)N(Cc1cccc(Cl)c1)Cc1nc2c(cnn2C)c(=O)[nH]1,6.79
11,O=C(c1ccsc1)N1CCC2(CC1)CCN(S(=O)(=O)C1CC1)CC2,-9.77
12,CCOCCCn1c(NC(=O)c2cnc(C)s2)nc2ccccc21,4.48
13,COc1cc(F)c(C(=O)NCc2ccon2)c(F)c1,-3.42
14,COCCN1CCC(NCc2c(F)cccc2F)C1 (configuration not stated),-0.0127
15,COC(=O)c1cccn1C1CCN(C(=O)c2cc(C)ccc2O)CC1,2.48
16,CCCN1CCCN(c2ncccc2C(=O)N2CCCCC2)CC1,-2.98
17,CS(=O)(=O)N1CC[C@H]2O[C@H](C(=O)NCCc3ccncc3)CC[C@H]21,14.6
18,CCCc1cc(C(=O)NC(COC)c2ccnn2C)no1 (configuration not stated),14.9
19,CCC(NC(=O)c1cnc(-c2cccnc2)nc1)c1ccnn1C (configuration not stated),32.1
20,COc1ncccc1NC(=O)C1CCOCC1,22.9
21,Cn1cnc(S(=O)(=O)N2CCN(Cc3ccco3)CC2)c1Cl,2.09
22,O=C(NCCCn1cccn1)c1nnc2ccccc2n1,2.8
23,CN(Cc1ccccc1)CC(C)(C)NC(=O)c1ccc(C(N)=O)cn1,1.67

row,SMILES,cytotoxicity at 70.5 h [%]
1,c1ccc(CN2CCN3C[C@H](Oc4cccnc4)C[C@H]3C2)nc1,-3.66
2,CC(=O)c1ccc(S(=O)(=O)Nc2cnn(C3CCOCC3)c2)cc1,6.82
3,COc1cccc2c1OCC(Cc1cc(C(=O)N3CCCC3)ccn1)C2 (configuration not stated),-16.5
4,O=C(Cc1ccc2c(c1)CCO2)N1CCN(c2nccs2)CC1,-2.11
5,c1ccc2[nH]c(C3CCN(Cc4nc(C5CC5)no4)CC3)cc2c1,-1.32
6,CS(=O)(=O)c1nnc(NC(=O)CCc2cccs2)[nH]1,17.8
7,COc1cc(F)ccc1C(C(=O)O)N(C)Cc1ccon1 (configuration not stated),-7.03
8,Cc1ccc(N2CC3(COCCN(Cc4cnn(C)c4)C3)OCC2=O)s1 (configuration not stated),0.295
9,Cc1nc(C)n(CC2CN(CC(=O)Nc3cccnc3)CCO2)n1 (configuration not stated),-2.68
10,CCN(Cc1cccc(NC(=O)COCCOC)c1)C(C)=O,1.86
11,O=C(NS(=O)(=O)c1ccc(F)c(F)c1)c1cscn1,17.8
12,COCCN(CCOC)C(=O)Nc1cc(C(F)(F)F)c[nH]c1=O,-15.1
13,CC(C(N)=O)S(=O)(=O)Cc1cc(Cl)c2c(c1)OCO2 (configuration not stated),-12.5
14,CCS(=O)(=O)N1CCC2(CCC2NC(=O)c2ccn(C)c2)CC1 (configuration not stated),-7.91
15,O=C(NCCc1ccncc1)c1ccc(S(=O)(=O)NC2CCC2)cc1,-9.51
16,CNC(=O)[C@H]1C[C@@H]2CN(C(=O)NC(C)C)C[C@H]1O2,23
17,CCN(Cc1ccncc1)C(=O)CCn1c(C)cc2ccccc21,-3.9
18,O=C(c1cccs1)N1C[C@H]2CC[C@@]3(N=C(c4ccccc4)NC3=O)[C@H]2C1,-4.38
19,Cc1nn2cccnc2c1C(=O)NCc1ccnc(OCC2CC2)c1,-12.1
20,Cc1ccc2c(c1)C1(CC2)CCN(CC(=O)O)CC1,5.44
